From patent publication US4410544A, “Platinum-diamine complexes, a method for the preparation of a medicine using such a platinum-diamine complex for the treatment of malignant tumor in mice” (priority 1978, dated 1983)

Legend:
[1] = Lethal doses LD10 / LD50 given with the BUN test in the rat
[2] = tested on: ependymoblastoma (EM); experiment: Anti-cancerous activity in mice, ependymoblastoma (EM); format: in vivo, mouse
Source text: (§1) An extensive research program carried out by the National Cancer Institute, Bethesda, Md., and the European Organization for Research on the Treatment of Cancer, Brussels, Belgium, has shown that when compared to PDD, compounds according to this invention, particularly compounds having the following formulas display a high therapeutic activity against a great number of different mammalian types of tumor, such as P 388 lymphocytic leukemia (PS), L-1210 lymphoid leukemia (LE), ependymoblastoma (EM), B 16 melanocarcinoma (B1) and a line of L-1210 leukemia resistant to cis-PDD (LE/cis-PDD): [drawing 9]
(§2) More detailed information concerning the testing procedure and their interpretation are contained in Instruction 14, Screening Data Summary, Interpretation and Outline of Current Screen, Drug Evaluation Branch, National Cancer Institute, Bethesda, Md., 20014 (1977) which is incorporated herein by reference.
(§3) *Period of survival is the ratio of survival times of the treated mice (T
(§4) to untreated mice (C); the therapeutic activity is significant at T/C
(§5) ≥ 125. The figures include dying mice only. A cure is defined as a
(§6) mouse free of tumors 45 days after injection, as determined by visual

[3] = tested on: B 16 melanocarcinoma (B1); experiment: Anti-cancerous activity in mice, B 16 melanocarcinoma (B1); format: in vivo, mouse; conditions: B16, B6 D2 (BDF) mice
Source text: as §1, §2, §3, §4, §5, §6

[4] = tested on: P 388 lymphocytic leukemia (PS); experiment: Anti-cancerous activity in mice, P 388 lymphocytic leukemia (PS); format: in vivo, mouse; conditions: CD2 F1 mice
Source text: as §1, §2, §3, §4, §5, §6

[5] = tested on: L-1210 lymphoid leukemia (LE); experiment: Anti-cancerous activity in mice, L-1210 lymphoid leukemia (LE); format: in vivo, mouse
Source text: as §1, §2, §3, §4, §5, §6
(§7) **For Formula 12-cis PDD the mice were injected with 10^6 L1210
(§8) ascites cells. One I.P. injection of the test compound was given to each

[6] = tested on: L-1210 leukemia resistant to cis-PDD (LE/cis-PDD); experiment: Anti-cancerous activity in mice, L-1210 leukemia resistant to cis-PDD (LE/cis-PDD); format: in vivo, mouse; conditions: for cures (mice free of tumors 45 days after injection) / T/C (period of survival, treated/untreated): LE/cis PDD, BDF1 mice; for cures (mice free of tumors 45 days after injection): of six mice; for T/C (period of survival, treated/untreated): one I.P. injection; for effectiveness against the cis-PDD resistant line of L-1210 versus the parent line: mice
Source text: as §1, §2, §3, §4, §5, §6, §7, §8

[7] = literature; cited from earlier work
[8] = literature; cited from earlier work; remark: listed apart in the source
[9] = tested on: cancer; conditions: literature, cited from earlier work
[10] = tested on: mammalian types of tumor; experiment: Therapeutic activity against mammalian tumors (NCI / EORTC program); format: in vivo, mouse; conditions: mice; Table A experiments
Source text: as §1, §2

[11] = Urea-nitrogen in the blood after administering platinum complexes (in the rat); format: in vivo
Experimental: Percentage of urea-nitrogen in the blood after
administering platinum complexes (in the rat).
Both at doses corresponding with the LD10 -amount and at those corresponding with the LD50 -amount the urea-nitrogen contents in the blood are identical to the control values. BUN values≥30 mg% are generally considered indicative of drug-induced nephrotoxicity. […] In was found by means of a histological examination of rats after treatment with toxic doses of compounds of this invention, that these compounds display little or no kidney toxicity.

[12] = 6.25 mg/kg per injection, significant at T/C ≥ 125
[13] = CD2 F1 mice, 12.50 mg/kg per injection
[14] = BDF1 mice, 50.00 mg/kg, one I.P. injection, 10^6 L1210 ascites cells

NCC1(CN)CCCCC1.[Cl][Pt][Cl] [Formula 4, Cis-dichloro-1,1-di(aminomethyl)cyclohexane platinum(II)]
LD10 [1]: 8 mg/kg
LD50 [1]: 15 mg/kg
T/C (period of survival, treated/untreated) ([2]; C57BL/6 mice, 6.00 mg/kg per injection): 126%
T/C (period of survival, treated/untreated) ([3]; 1.50 mg/kg per injection): 190%
T/C (period of survival, treated/untreated) ([3]; 3.00 mg/kg per injection): 208%
T/C (period of survival, treated/untreated) ([3]; 6.00 mg/kg per injection): 208%
T/C (period of survival, treated/untreated) ([4]; 1.56 mg/kg per injection): 153%
T/C (period of survival, treated/untreated) ([4]; 3.12 mg/kg per injection): 181%
T/C (period of survival, treated/untreated) [4, 12]: 201%
T/C (period of survival, treated/untreated) ([5]; CD2 F1 mice, 3.12 mg/kg per injection): 145%
T/C (period of survival, treated/untreated) ([5]; CD2 F1 mice, 6.25 mg/kg per injection): 180%
T/C (period of survival, treated/untreated) [5, 13]: 234%

NCC1(CN)CCCCC1.O=C1[O][Pt][O]C(=O)C12CCCCC2 [Formula 7, Cis-cyclopentamethylene malonato-1,1-di(aminomethyl)cyclohexane platinum(II)]
T/C (period of survival, treated/untreated) ([2]; 57BL/6 mice, 6.25 mg/kg per injection): 130%
T/C (period of survival, treated/untreated) ([2]; 57BL/6 mice, 12.50 mg/kg per injection): 163%
T/C (period of survival, treated/untreated) [4, 12]: 162%
T/C (period of survival, treated/untreated) ([4]; 12.50 mg/kg per injection): 177%
T/C (period of survival, treated/untreated) ([4]; 25.00 mg/kg per injection): 226%
T/C (period of survival, treated/untreated) ([5]; CD2 F1 mice, 80.00 mg/kg per injection): 138%

CCC(C)(CN)CN.[Cl][Pt][Cl] [Formula 8, Cis-dichloro-(2-methyl-2-ethyl)-1,3-propane diamine platinum (II)]
T/C (period of survival, treated/untreated) [5, 13]: 289%

CCC(CC)(CN)CN.[Cl][Pt][Cl] [Formula 9, Cis-dichloro-2,2-diethyl-1,3-propane diamine platinum(II)]
T/C (period of survival, treated/untreated) [5, 13]: 323%

NCC1(CN)CCCC1.[Cl][Pt][Cl] [Formula 10, Cis-dichloro-1,1-di(aminomethyl)cyclopentane platinum(II)]
T/C (period of survival, treated/untreated) [5, 13]: 148%

NCC1(CN)CCCCC1.O=S(=O)([O-])[O-].[Pt+2] [Formula 11, Cis-1,1-di(aminomethyl)cyclohexane platinum(II) sulphate]
T/C (period of survival, treated/untreated) [5, 13]: 274%

NCC1(CN)CCC1.[Cl-].[Cl-].[Pt+2] [Formula 12, Cis-dichloro-1,1-di(aminomethyl)cyclobutane platinum(II)]
T/C (period of survival, treated/untreated) ([5]; BDF1 mice, 15.00 mg/kg, one I.P. injection, 10^6 L1210 ascites cells): 208%

NCC(CN)(Cc1ccccc1)Cc1ccccc1.[Cl][Pt][Cl] [Formula 13, Cis-dichloro-2,2-dibenzyl-1,3-propane diamine platinum(II)]
T/C (period of survival, treated/untreated) [5, 14]: 135%

CC(C)C(CN)(CN)C(C)C.[Cl-].[Cl-].[Pt+2] [Formula 14, Cis-dichloro-2,2-diisopropyl-1,3-propane diamine platinum(II)]
T/C (period of survival, treated/untreated) [5, 14]: 178%

NCC1(CN)CCCCC1.O=C(O)c1ccc2c(c1)C(=O)[O][Pt][O]C2=O [Formula 15, Cis-4-carboxyphthalato-1,1-di(aminomethyl)-cyclohexane platinum (II)]
T/C (period of survival, treated/untreated) ([5]; BDF1 mice, 40.00 mg/kg, one I.P. injection, 10^6 L1210 ascites cells): 200%

NCC1(CN)CCCCC1.O=C(CCl)[O][Pt][O]C(=O)CCl [Formula 16, Cis-1,1-di(aminomethyl)-cyclohexane-bis(chloroacetato)platinum(II)]
T/C (period of survival, treated/untreated) ([5]; BDF1 mice, 6.00 mg/kg, one I.P. injection, 10^6 L1210 ascites cells): 207%

CCC(CC)(CN)CN.O=S(=O)([O-])[O-].[Pt+2] [Formula 17, Cis-2,2-diethyl-1,3-propanediamine platinum(II) sulphate]
cures (mice free of tumors 45 days after injection) ([6]; 6.00 mg/kg): 3/6
T/C (period of survival, treated/untreated) ([6]; 6.00 mg/kg): > 500%
effectiveness against the cis-PDD resistant line of L-1210 versus the parent line [6]: even more effective against the cis-PDD resistant line of L-1210 than they are against the parent line of L-1210
T/C (period of survival, treated/untreated) ([5]; BDF1 mice, 12.00 mg/kg, one I.P. injection, 10^6 L1210 ascites cells): 200%

NCC1(CN)CCCCC1.O=C([O-])CC(=O)[O-].[Pt+2] [Formula 18, Cis-1,1-di(aminomethyl)-cyclohexanemalonato platinum(II)]
T/C (period of survival, treated/untreated) ([6]; 16.00 mg/kg): 230%
effectiveness against the cis-PDD resistant line of L-1210 versus the parent line [6]: even more effective against the cis-PDD resistant line of L-1210 than they are against the parent line of L-1210
cures (mice free of tumors 45 days after injection) ([5]; BDF1 mice, 64.00 mg/kg, of six mice): 1/6
T/C (period of survival, treated/untreated) ([5]; BDF1 mice, 64.00 mg/kg, one I.P. injection, dying mice only): 200%

NCC1(CN)CCCCC1.O=C1[O][Pt][O]C(=O)C1O [Formula 19, Cis-1,1-di(aminomethyl)cyclohexanehydroxymalonato platinum(II)]
cures (mice free of tumors 45 days after injection) ([6]; 24.00 mg/kg): 3/6
T/C (period of survival, treated/untreated) ([6]; 24.00 mg/kg): > 500%
effectiveness against the cis-PDD resistant line of L-1210 versus the parent line [6]: even more effective against the cis-PDD resistant line of L-1210 than they are against the parent line of L-1210
T/C (period of survival, treated/untreated) ([5]; BDF1 mice, 36.00 mg/kg, one I.P. injection, 10^6 L1210 ascites cells): 246%

cis-dichlorobiscyclopentyl amine platinum(II)
spleen toxicity [7]: toxic to the spleen
kidney toxicity [8]: only slightly toxic to the kidneys

cis-platinum diamine dichloride [PDD]
LD10 [1]: 3 mg/kg
LD50 [1]: 7.6 mg/kg
therapeutic index [9]: low therapeutic index
toxicity ([9]; treatment of cancer): Toxicity is a very serious drawback
T/C (period of survival, treated/untreated) ([6]; 4-8 mg/kg): 106-121%
complete cures [10]: not observed
Percentage of urea-nitrogen in blood ([11]; 3 mg/kg (LD10), 0 days after injection): 10%
Percentage of urea-nitrogen in blood ([11]; 3 mg/kg (LD10), 2 days after injection): 13%
Percentage of urea-nitrogen in blood ([11]; 3 mg/kg (LD10), 4 days after injection): 52%
Percentage of urea-nitrogen in blood ([11]; 7.6 mg/kg (LD50), 0 days after injection): 10%
Percentage of urea-nitrogen in blood ([11]; 7.6 mg/kg (LD50), 2 days after injection): 78%
Percentage of urea-nitrogen in blood ([11]; 7.6 mg/kg (LD50), 4 days after injection): 148%
increase in the urea nitrogen content ([11]; LD10 dose, 4 days after injection): about a quadruple increase
T/C (period of survival, treated/untreated) ([3]; 2.00 mg/kg per injection): 197%
T/C (period of survival, treated/untreated) ([5]; BDF1 mice, 8.00 mg/kg, one I.P. injection, 10^6 L1210 ascites cells): 183%
